Measured values from patent US20130123365A1, “USE OF FTS AND ANALOGS TO TREAT NON-AUTOIMMUNE-ALLERGIC AND NON-ALLERGIC INFLAMMATORY CONDITIONS” (RAMOT AT TEL-AVIV UNIVERSITY LTD., priority 2010, published 2013).

Legend:
N-Ras = target: T1, N-Ras (Homo sapiens, UniProt P01111); assay: Ras activation imaging: GFP-Raf-1-RBD probe translocation in LAD2 cells after FCεRI cross-linking; assay type: cell-based; settings: LAD2 cells expressing RFP-N-Ras, pretreated with 25 μM FTS
T1 construct: expressed in transfected cells; host or cells: LAD2 human mast cell line
T1 sequence (P01111 whole entry, species assumed): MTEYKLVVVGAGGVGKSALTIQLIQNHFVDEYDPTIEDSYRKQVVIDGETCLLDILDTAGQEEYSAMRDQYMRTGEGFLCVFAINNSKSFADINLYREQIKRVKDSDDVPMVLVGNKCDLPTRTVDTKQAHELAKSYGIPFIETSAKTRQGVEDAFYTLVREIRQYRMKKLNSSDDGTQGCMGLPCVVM
Procedure: The LAD2 MC, expressing functional FCεRI receptors, were established from bone marrow aspirates of a patient with MC leukemia and maintained as previously described. Transfection of LAD2 cells was performed with DMRIE-C (Invitrogen, Carlsbad, Calif.), and cells were studied 24 hours later.
(§1) For IgE-mediated activation, cells were sensitized overnight with 100 ng/ml of human myeloma IgE-biotin (Calbiochem; Merck Darmstadt, Germany) and then stimulated with 100 ng/ml of streptavidin (Jackson Immuno-Research Laboratories, West Grove, Pa.). Degranulation was quantified 20 minutes after stimulation by assaying the release of ε-hexosaminidase, a preformed mediator present in the secretory granules of MC. Release of ε-hexosaminidase was measured spectrophotometrically by assaying the cleavage of its substrate p-nitrophenyl-N-acetyl-ε-D-glucosaminide. Degranulation was expressed as a percentage of total ε-hexosaminidase activity in the cells, obtained by lysis of the cells with 0.5% triton X-100. Supernatants obtained from MC stimulated for 3 to 6 hours were examined for the released PGD2 and TNF-α by a commercial ELISA kits, according to the manufacturer's instructions (Prostaglandin D2-MOX EIA Kit, Cayman Chemical Company, Ann Arbor, Mich., and TNF-α HS Elisa kit, R&D® Systems Inc., Minneapolis, Minn.).
Live cells were plated in 35-mm dishes containing a no. […]

LAD2 cells [1] = assay: PGD2 release from stimulated mast cells (ELISA); assay type: cell-based, human; settings: 6 hours after stimulation
Procedure: as §1, with “The LAD2 MC, expressing functional FCεRI receptors, were established from bone marrow aspirates of a patient with MC leukemia and maintained as previously described. Transfection of LAD2 cells was performed with DMRIE-C (Invitrogen, Carlsbad, Calif.), and cells were studied 24 hours later. For” for “For”

BALB/c female mice = assay: IgE-dependent passive cutaneous anaphylaxis reaction, footpad swelling; assay type: in vivo; settings: oral 100 mg/kg
Procedure: The study was approved by the Institutional Ethics Committee of Tel Aviv University. 8-10 weeks old BALB/c female mice were primed to express an IgE-dependent passive cutaneous anaphylaxis (PCA) reaction. Mice were lightly anaesthetized with ether and their left footpads were injected subcutaneously with 20 ul (20 ng) of IgE anti DNP. Their right footpads were injected with 20 ul of diluents. The next day the mice received an intraperitoneal injection of 100 ug of DNP30-40-HAS in saline. Footpad swelling was measured with an engineer's micrometer (Ozaki Mfg. Co., Itabashi, Tokyo). Footpad swelling was expressed as the difference in thickness before and after the challenge, measured at several time points after the challenge. FTS was orally administrated before the antigen challenge at 100 mg/kg as previously described.

LAD2 cells [2] = assay: Mast cell degranulation (β-hexosaminidase secretion) after FCεRI cross-linking; assay type: cell-based, human; settings: 20 minutes after stimulation
Procedure: as §1, with “The LAD2 MC, expressing functional FCεRI receptors, were established from bone marrow aspirates of a patient with MC leukemia and maintained as previously described. Transfection of LAD2 cells was performed with DMRIE-C (Invitrogen, Carlsbad, Calif.), and cells were studied 24 hours later. For” for “For”

Ras = assay: Raf-1-RBD pull-down assay of GTP loaded Ras in stimulated LAD2 cells; assay type: cell-based, human; settings: FCεRI cross-linking, pretreated with 25 μM FTS
Procedure: as §1, with “Minn.). Methods of detecting activated Ras by pull-down assay and by SDS-PAGE immunoblotting were performed as previously described.” for “Minn.).”

LAD2 cells [3] = assay: TNF-α release from stimulated mast cells (ELISA); assay type: cell-based, human; settings: different concentrations of FTS, 3 hours after stimulation, dose dependent, p<0.05
Procedure: as §1, with “The LAD2 MC, expressing functional FCεRI receptors, were established from bone marrow aspirates of a patient with MC leukemia and maintained as previously described. Transfection of LAD2 cells was performed with DMRIE-C (Invitrogen, Carlsbad, Calif.), and cells were studied 24 hours later. For” for “For”

Q: Which “translocation of the probe for activated Ras (GFP-Raf-1-RBD) to the plasma membrane” value (N-Ras) does the source give for `CC(C)=CCCC(C)=CCCC(C)=CCSc1ccccc1C(=O)O` [FTS, S-farnesylthiosalicylic acid] here?
A: completely blocked

Q: And the “release of PGD2” value (LAD2 cells [1]; 25 μM FTS)?
A: not

Q: What about the “release of PGD2” value (LAD2 cells [1]; 50 μM FTS) of the same compound?
A: inhibited

Q: And the “tissue (footpad) swelling” value (BALB/c female mice; three hours after antigen challenge)?
A: inhibited tissue swelling

Q: And the “attenuation of tissue (footpad) swelling” value (BALB/c female mice; three to six hours after antigen challenge)?
A: ~40%

Q: And the “immunological degranulation (β-hexosaminidase secretion)” value (LAD2 cells [2]; 25 μM FTS)?
A: did not significantly modify

Q: What about the “immunological degranulation (β-hexosaminidase secretion)” value (LAD2 cells [2]; 50 μM FTS) of the same compound?
A: did not significantly modify

Q: And the “levels of GTP loaded Ras” value (Ras)?
A: significantly attenuated

Q: And the “relative reduction in the amount of activated Ras” value (Ras; n=4)?
A: approximately 35%

Q: What about the TNF-α release (LAD2 cells [3]) of the same compound?
A: appreciably inhibited
